Patent US9872493B2, “Method for promoting plant growth” (SUMITOMO CHEMICAL COMPANY, LIMITED, priority 2012, dated 2018)

Assays:
[1] = test system: Rice (Variety: Nipponbare); assay: Test for evaluating promotion of root growth by hydroponics of rice (Test Examples 1-3); type: in vivo
Description: Rice (Variety: Nipponbare)
(§1) A DMSO solution, which contained one of the compounds 14, 18, 21, 23, 26, 28, 29, 30, 35, 36, 37, 39 and 40 of the present invention at a concentration of 100,000 ppm, was added to Hoagland hydroponic solution (Hoagland and Arnon, California Agricultural Experiment Station 1950 Circular 347 pp. 34) of ¼-fold concentration at a volume ratio of 1/10,000. In this manner, hydroponic solutions containing one of the compounds 14, 18, 21, 23, 26, 28, 29, 30, 35, 36, 37, 39 and 40 of the present invention at 10 ppm were prepared respectively. As an untreated control plot, a hydroponic solution obtained by adding DMSO to Hoagland hydroponic solution of ¼-fold concentration at a volume ratio of 1/10,000 was used.
(§2) Rice seeds were soaked in a 1% aqueous sodium hypochlorite solution for 10 minutes, then soaked in a 70% ethanol solution for surface sterilization, and then washed with distilled water. The sterilized seeds were soaked in a hydroponic solution containing the test compound described above at 10 ppm and incubated in a dark place for 3 days at 28° C. to perform treatment for hastening germination.
(§3) Thereafter, 30 ml of hydroponic solution containing the test compound at 10 ppm was dispensed in a plastic tube (diameter of 20 mm×height of 113 mm) of which the side was covered with cardboard to block light. A float prepared using a styrene board and vinyl mesh was floated, and the rice seeds that had undergone the treatment for hastening germination were placed on the float on the surface of the hydroponic solution. The seeds were cultivated for 3 days at 26° C., an illuminance of 4,000 lux of the top surface of the tube, a humidity of 50%, and a day length of 16 hours.
The nursery plants of rice obtained after cultivating were measured in terms of the length of seminal root by using WinRHIZO system (manufactured by Regent Instruments Inc). For each test plot, an average of the measured values of the seminal root of 4 or 5 individuals were determined.
as §1, with “compounds 7, 8, 9, 10, 12, 17, 20,” for “compounds 14, 18,”, “21, 25, 27,” for “21, 23, 26,”, “30, 34,” for “30,”, “37, 38,” for “37,”, “of 10,000” for “of 100,000”, “at 1” for “at 10”
as §2, with “at 1” for “at 10”
as §3, with “1” for “10”
The nursery plants of rice obtained after cultivation were measured in terms of the length of seminal root by using WinRHIZO system (manufactured by Regent Instruments Inc). […]

Nicotiana benthamiana = assay: Test for evaluating growth promotion under low-temperature stress by hydroponics of Nicotiana benthamiana (Test Examples 4-6); type: in vivo; settings: 7 days at 1.5±1.0° C. low-temperature stress, then 3 days at 22° C., green leaf area vs untreated control, read-out: value of a relative leaf area (equation (1)); for relative green leaf area after low-temperature stress at 0.1 ppm: compound at 0.1 ppm; for relative green leaf area after low-temperature stress at 1 ppm: compound at 1 ppm; for relative green leaf area after low-temperature stress at 10 ppm: compound at 10 ppm
Description: A DMSO solution, which contained one of the compounds 5, 14, 22, 23, 24, 25, 26, 28, 30, 31, 32, 33, 34, 35, 38, 39 and 40 of the present invention at a concentration of 10,000 ppm, was prepared. The DMSO solution of the compound of the present invention was added at a volume ratio of 1/1,000 to the Murashige•Scoog medium of a ½-fold concentration (a medium containing 2.3 g of mixed salts (manufactured by Wako Pure Chemical Industries, Ltd.), 200 mg of Myo-inositol (manufactured by Sigma-Aldrich Co. LLC.), 2 mg of nicotinic acid (manufactured by Wako Pure Chemical Industries, Ltd.), 2 mg of pyridoxine hydrochloride (manufactured by Wako Pure Chemical Industries, Ltd.), 20 mg of thiamine hydrochloride (manufactured by Wako Pure Chemical Industries, Ltd.), 20 g of sucrose (manufactured by Wako Pure Chemical Industries, Ltd.), and 1 g of MES (manufactured by DOJINDO LABORATORIES) per 1 L of water and having pH adjusted to 5.8), thereby preparing a medium containing the compound of the present invention at a concentration of 10 ppm.
Seeds of Nicotiana benthamiana were seeded in the 5 μL of the medium and cultured overnight at 22° C. Thereafter, 45 μL of the medium containing the compound of the present invention at a concentration of 10 ppm was added thereto, and the seeds are cultivated for 7 days at 22° C., an illuminance of 4,000 lux, and a day length of 16 hours, thereby the nursery plants raised from the Nicotiana benthamiana were treated with the compound.
Moreover, instead of the above medium a test plot, which was obtained by performing the same treatment by using a medium prepared by adding DMSO to the Murashige•Scoog medium of ½-fold concentration at a volume ratio of 1/1,000, was used as a control plot not treated with the compound.
The nursery plants of the Nicotiana benthamiana treated with the compound were subjected to low-temperature treatment by being cultivated for 7 days at 1.5±1.0° C., an illuminance of 2,000 lux, and a day length of 16 hours.
The nursery plants of the Nicotiana benthamiana having undergone the low-temperature stress treatment were cultivated for 3 days at 22° C., an illuminance of 4,000 lux, and a day length of 16 hours. Thereafter, the area of green leaf was quantified by Scanalyzer HTS (manufactured by LemnaTec GmbH). Moreover, the value of the control plot not treated with the compound that had not yet been subjected to the low-temperature stress treatment was measured in the same manner. A value of a relative leaf area was calculated based on the following equation (1), and if the value of a relative leaf area was 5 or greater, the compound was evaluated to have a mitigating effect. As a result of the evaluation, it was confirmed that when the plant was treated with one of the compounds 5, 14, 22, 23, 24, 25, 26, 28, 30, 31, 32, 33, 34, 35, 38, 39 and 40 of the present invention at 10 ppm, the value of a relative leaf area was 5 or greater, compared to the area of green leaf of the control plot not treated with compound. Accordingly, it was confirmed that the treatment using the compound of the present invention brings about a growth promotion effect. Relative leaf area=100*(a green area of a plot treated with the compound of the present invention−a green area of a control plot not treated with the compound of the present invention)/(a green area of a control plot not treated with the compound of the present invention that has not yet been subjected to low-temperature stress treatment−a green area of a control plot not treated with the compound of the present invention) Equation (1): […]
A DMSO solution, which contained one of the compounds 6, 7, 8, 11, 12, 15, 19, 23, 24, 25, 28, 30, 31, 33, 34, 36, 37, 38 and 39 of the present invention at a concentration of 1,000 ppm, was prepared. […]

| SMILES | length of seminal root compared with the untreated control plot (in words) ([1]; 0.1 ppm) | relative green leaf area after low-temperature stress at 0.1 ppm (Nicotiana benthamiana) | relative green leaf area after low-temperature stress at 1 ppm (Nicotiana benthamiana) | relative green leaf area after low-temperature stress at 10 ppm (Nicotiana benthamiana) | length of seminal root compared with the untreated control plot (in words) ([1]; 1 ppm) | length of seminal root compared with the untreated control plot (in words) ([1]; 10 ppm) |
| --- | --- | --- | --- | --- | --- | --- |
| CNC(=O)c1csc2cc(C(F)(F)F)ccc12 [Compound 31] | obviously longer | ≥ 5% | ≥ 5% | ≥ 5% | – | – |
| O=C(O)c1c(C(F)(F)F)sc2ccccc12 [Compound 15, 2-trifluoromethylbenzo[b]thiophene-3-carboxylic acid] | obviously longer | – | ≥ 5% | – | – | – |
| NC(=O)c1csc2c(C(F)(F)F)cccc12 [Compound 37] | obviously longer | – | ≥ 5% | – | obviously longer | obviously longer |
| COC(=O)c1csc2cc(C(F)(F)F)ccc12 [Compound 28] | obviously longer | ≥ 5% | ≥ 5% | ≥ 5% | obviously longer | obviously longer |
| CCOC(=O)c1csc2c(C(F)(F)F)cccc12 [Compound 36] | obviously longer | ≥ 5% | ≥ 5% | – | obviously longer | obviously longer |
| O=C(NCc1ccccc1)c1csc2c(C(F)(F)F)cccc12 [Compound 40] | – | – | – | ≥ 5% | obviously longer | obviously longer |
| NC(=O)c1cccc2sc(C(F)(F)F)cc12 [Compound 3, 2-trifluoromethylbenzo[b]thiophene-4-carboxamide] | obviously longer | ≥ 5% | – | – | – | – |
| O=C(Nc1ccccc1)c1c(C(F)(F)F)sc2ccccc12 [Compound 25] | – | – | ≥ 5% | ≥ 5% | obviously longer | – |
| NC(=O)c1csc2cccc(C(F)(F)F)c12 [Compound 19] | obviously longer | – | ≥ 5% | – | – | – |
| O=C(Nc1ccccc1)c1csc2c(C(F)(F)F)cccc12 [Compound 39] | obviously longer | – | ≥ 5% | ≥ 5% | obviously longer | obviously longer |
| NC(=O)c1cccc2ccsc12 [Compound 7, benzo[b]thiophene-7-carboxamide] | – | – | ≥ 5% | – | obviously longer | – |
| NC(=O)c1csc2cc(C(F)(F)F)ccc12 [Compound 30] | obviously longer | ≥ 5% | ≥ 5% | ≥ 5% | obviously longer | obviously longer |
| COC(=O)c1cccc2ccsc12 [Compound 8, methyl benzo[b]thiophene-7-carboxylate] | – | – | ≥ 5% | – | obviously longer | – |
| CCOC(=O)c1csc2cc(C(F)(F)F)ccc12 [Compound 29] | obviously longer | ≥ 5% | – | – | obviously longer | obviously longer |
| O=C(O)c1csc2ccc(C(F)(F)F)cc12 [Compound 13, 5-trifluoromethylbenzo[b]thiophene-3-carboxylic acid] | obviously longer | ≥ 5% | – | – | – | – |
| O=C(O)c1cccc2cc(C(F)(F)F)sc12 [Compound 9, 2-trifluoromethylbenzo[b]thiophene-7-carboxylic acid] | – | ≥ 5% | – | – | obviously longer | – |
